Measured values from the NIST ThermoML archive (doi:10.1021/acs.jced.6b00178).

CC(=O)[O-].CCCCn1cc[n+](C)c1 [1-butyl-3-methylimidazolium acetate]
100 kPa, Liquid
Conditions | mass density, Vibrating tube method [kg/m3] | viscosity, Concentric cylinders viscometry [mPa·s]
283.15 K | 1062.7 | 1013.4
288.15 K | 1059.4 | 645.6
293.15 K | 1056 | 421.35
298.15 K | 1052.8 | 292.57
303.15 K | 1049.7 | 206.68
308.15 K | 1046.6 | 150.08
313.15 K | 1043.5 | 110.79
318.15 K | 1040.5 | 85.03
323.15 K | 1037.5 | 66.07
328.15 K | 1034.5 | 52.29
333.15 K | 1031.5 | 42.29
338.15 K | 1028.5 | 34.38
343.15 K | 1025.6 | 28.48
348.15 K | 1022.6 | 23.88
353.15 K | 1019.7 | 20.63
358.15 K | 1016.7 | 17.35
363.15 K | 1013.9 | 15

CCCCn1cc[n+](C)c1.N#CN=C=[N-] [1-butyl-3-methylimidazolium dicyanamide]
100 kPa, Liquid
Conditions | mass density, Vibrating tube method [kg/m3] | viscosity, Concentric cylinders viscometry [mPa·s]
283.15 K | 1070 | 58.35
288.15 K | 1066.7 | 45.91
293.15 K | 1063.4 | 36.83
298.15 K | 1060.2 | 30.08
303.15 K | 1057 | 24.94
308.15 K | 1053.8 | 20.98
313.15 K | 1050.6 | 17.86
318.15 K | 1047.5 | 15.38
323.15 K | 1044.4 | 13.38
328.15 K | 1041.3 | 11.74
333.15 K | 1038.2 | 10.38
338.15 K | 1035.2 | 9.251
343.15 K | 1032.1 | 8.298
348.15 K | 1029.1 | 7.488
353.15 K | 1026.1 | 6.794
358.15 K | 1023.2 | 6.196
363.15 K | 1020.3 | 5.677

CCCCn1cc[n+](C)c1.F[P-](F)(F)(F)(F)F [1-butyl-3-methylimidazolium hexafluorophosphate]
100 kPa
Conditions | mass density [kg/m3] | viscosity [mPa·s]
283.15 K, Metastable liquid, Concentric cylinders viscometry | – | 794.33
283.15 K, Metastable liquid, Vibrating tube method | 1379.9 | –
288.15 K, Concentric cylinders viscometry, Liquid | – | 557.27
288.15 K, Vibrating tube method, Liquid | 1376.5 | –
293.15 K, Concentric cylinders viscometry, Liquid | – | 393.86
293.15 K, Vibrating tube method, Liquid | 1372 | –
298.15 K, Concentric cylinders viscometry, Liquid | – | 285.02
298.15 K, Vibrating tube method, Liquid | 1367.6 | –
303.15 K, Concentric cylinders viscometry, Liquid | – | 210.93
303.15 K, Vibrating tube method, Liquid | 1363.4 | –
308.15 K, Concentric cylinders viscometry, Liquid | – | 159.46
308.15 K, Vibrating tube method, Liquid | 1359.2 | –
313.15 K, Concentric cylinders viscometry, Liquid | – | 122.78
313.15 K, Vibrating tube method, Liquid | 1355.1 | –
318.15 K, Concentric cylinders viscometry, Liquid | – | 96.28
318.15 K, Vibrating tube method, Liquid | 1351 | –
323.15 K, Concentric cylinders viscometry, Liquid | – | 76.72
323.15 K, Vibrating tube method, Liquid | 1347 | –
328.15 K, Concentric cylinders viscometry, Liquid | – | 62.04
328.15 K, Vibrating tube method, Liquid | 1342.9 | –
333.15 K, Concentric cylinders viscometry, Liquid | – | 50.85
333.15 K, Vibrating tube method, Liquid | 1338.9 | –
338.15 K, Concentric cylinders viscometry, Liquid | – | 42.2
338.15 K, Vibrating tube method, Liquid | 1334.9 | –
343.15 K, Concentric cylinders viscometry, Liquid | – | 35.43
343.15 K, Vibrating tube method, Liquid | 1330.9 | –
348.15 K, Concentric cylinders viscometry, Liquid | – | 30.04
348.15 K, Vibrating tube method, Liquid | 1326.9 | –
353.15 K, Concentric cylinders viscometry, Liquid | – | 25.72
353.15 K, Vibrating tube method, Liquid | 1323 | –
358.15 K, Concentric cylinders viscometry, Liquid | – | 22.22
358.15 K, Vibrating tube method, Liquid | 1319 | –
363.15 K, Concentric cylinders viscometry, Liquid | – | 19.36
363.15 K, Vibrating tube method, Liquid | 1315.2 | –

CCCCn1cc[n+](C)c1.F[B-](F)(F)F [1-butyl-3-methylimidazolium tetrafluoroborate]
100 kPa, Liquid
Conditions | mass density, Vibrating tube method [kg/m3] | viscosity, Concentric cylinders viscometry [mPa·s]
283.15 K | 1212.5 | 264.99
288.15 K | 1208.8 | 192.43
293.15 K | 1205.2 | 143.08
298.15 K | 1201.6 | 108.74
303.15 K | 1198 | 84.28
308.15 K | 1194.5 | 66.52
313.15 K | 1190.9 | 53.37
318.15 K | 1187.4 | 43.47
323.15 K | 1184 | 35.89
328.15 K | 1180.5 | 30.01
333.15 K | 1177 | 25.38
338.15 K | 1173.6 | 21.68
343.15 K | 1170.2 | 18.7
348.15 K | 1166.8 | 16.26
353.15 K | 1163.4 | 14.26
358.15 K | 1160.1 | 12.59
363.15 K | 1156.8 | 11.2

CCCCn1cc[n+](C)c1.N#C[S-] [1-butyl-3-methylimidazolium thiocyanate]
100 kPa, Liquid
Conditions | mass density, Vibrating tube method [kg/m3] | viscosity, Concentric cylinders viscometry [mPa·s]
283.15 K | 1079.2 | 139.54
288.15 K | 1076.2 | 104.51
293.15 K | 1073.2 | 82.91
298.15 K | 1070.2 | 62.63
303.15 K | 1067.2 | 49.94
308.15 K | 1064.2 | 40.48
313.15 K | 1061.3 | 34.08
318.15 K | 1058.4 | 27.8
323.15 K | 1055.5 | 23.49
328.15 K | 1052.6 | 20.06
333.15 K | 1049.8 | 17.58
338.15 K | 1047 | 15.08
343.15 K | 1044.1 | 13.24
348.15 K | 1041.4 | 11.71
353.15 K | 1038.6 | 10.67
358.15 K | 1035.8 | 9.355
363.15 K | 1033.1 | 8.436

CCCCn1cc[n+](C)c1.O=S(=O)([O-])C(F)(F)F [1-butyl-3-methylimidazolium trifluoromethanesulfonate]
100 kPa
Conditions | mass density [kg/m3] | viscosity [mPa·s]
283.15 K, Metastable liquid, Concentric cylinders viscometry | – | 225.61
283.15 K, Metastable liquid, Vibrating tube method | 1308.4 | –
288.15 K, Metastable liquid, Concentric cylinders viscometry | – | 168.05
288.15 K, Metastable liquid, Vibrating tube method | 1304.3 | –
293.15 K, Concentric cylinders viscometry, Liquid | – | 128.51
293.15 K, Vibrating tube method, Liquid | 1300.3 | –
298.15 K, Concentric cylinders viscometry, Liquid | – | 99.14
298.15 K, Vibrating tube method, Liquid | 1296.3 | –
303.15 K, Concentric cylinders viscometry, Liquid | – | 78.26
303.15 K, Vibrating tube method, Liquid | 1292.3 | –
308.15 K, Concentric cylinders viscometry, Liquid | – | 62.76
308.15 K, Vibrating tube method, Liquid | 1288.4 | –
313.15 K, Concentric cylinders viscometry, Liquid | – | 51.33
313.15 K, Vibrating tube method, Liquid | 1284.5 | –
318.15 K, Concentric cylinders viscometry, Liquid | – | 42.1
318.15 K, Vibrating tube method, Liquid | 1280.6 | –
323.15 K, Concentric cylinders viscometry, Liquid | – | 35.13
323.15 K, Vibrating tube method, Liquid | 1276.7 | –
328.15 K, Concentric cylinders viscometry, Liquid | – | 29.63
328.15 K, Vibrating tube method, Liquid | 1272.8 | –
333.15 K, Concentric cylinders viscometry, Liquid | – | 25.5
333.15 K, Vibrating tube method, Liquid | 1268.9 | –
338.15 K, Concentric cylinders viscometry, Liquid | – | 21.72
338.15 K, Vibrating tube method, Liquid | 1265.1 | –
343.15 K, Concentric cylinders viscometry, Liquid | – | 18.84
343.15 K, Vibrating tube method, Liquid | 1261.3 | –
348.15 K, Concentric cylinders viscometry, Liquid | – | 16.47
348.15 K, Vibrating tube method, Liquid | 1257.5 | –
353.15 K, Concentric cylinders viscometry, Liquid | – | 14.83
353.15 K, Vibrating tube method, Liquid | 1253.7 | –
358.15 K, Concentric cylinders viscometry, Liquid | – | 12.86
358.15 K, Vibrating tube method, Liquid | 1249.9 | –
363.15 K, Concentric cylinders viscometry, Liquid | – | 11.48
363.15 K, Vibrating tube method, Liquid | 1246.2 | –
